Results published in patent publication US11718618B2, “Substituted pyrido[2,1-a]isoquinolines as VMAT2 inhibitors” (priority 2021, dated 2023).
pKi: −log10 of the molar value.

What was measured:
[1] = target: human VMAT2 (Homo sapiens (Human), UniProt Q05940); experiment: VMAT2 radioligand binding, 3H-dihydrotetrabenazine competition on human platelet homogenate; conditions: 10 nM 3H-dihydrotetrabenazine, human platelet homogenate, 25° C., 90 minutes; read-out: VMAT2 Ki
Procedure: Examples of techniques for determining the capability of a compound to inhibit VMAT2 are provided below. The procedure was adapted from that described previously (see, e.g., Near, (1986), Mol. Pharmacol. 30: 252-57; Teng, et al., J. Neurochem. 71, 258-65, 1998). Homogenates from human platelets were prepared by homogenization and then washed by centrifugation as described previously (see, e.g., Hoare et al., (2003) Peptides 24:1881-97).
The human VMAT2 Ki values for the compounds listed in Table 15A and Table 15B were determined using the following procedures. Compound dilution series in DMSO were generated from either powder stocks by hand, or from DMSO stocks using serial dilution on a Vantage (Hamilton), or direct dilution using an Echo 655 (Beckman). In a total volume of 0.145 to 0.150 mL in low-binding 96-well plates (Corning #3605), twelve concentrations of test compound were competed against 10 nM ^3H-dihydrotetrabenezine (American Radiolabeled Chemicals) on human platelet homogenate (30 μg membrane protein per well) in VMAT2 binding buffer (Dulbecco's phosphate buffered saline, 1 mM EDTA, pH 7.4). Following incubation at 25° C. for 90 minutes, bound radioligand was collected by rapid filtration onto either GF/B or GF/C glass fiber filters, pretreated with 0.100 polyethylenimine, using either a Unifilter-96 Harvester (PerkinElmer) or Microlab Star (Hamilton). Following harvesting the filter plates were washed with 0.8 mL VMAT2 binding buffer, and bound radioligand was quantified by scintillation counting using a Topcount NXT or Microplate Counter Microbeta (PerkinElmer).

[2] = Stability of compounds in human liver microsomes; type: in vitro ADME; conditions: for CLint scaled at 0.5 μM / half-life at 0.5 μM: both sexes, pH 7.4; for CLint scaled at 0.5 μM: liver microsomes, calculated from HLM half-life, read-out: HLM Scaled Intrinsic Clearance; for CLint scaled at 0.5 μM / Predicted Max. Bioavailability (% F) / HLM Predicted Systemic Clearance: human; for half-life at 0.5 μM: 0.5 μM compound, 0.5 mg/mL human liver microsomes, 37° C., maxed at 420 minutes, read-out: HLM Elimination half-life (t1/2, min); for Predicted Max. Bioavailability (% F): predicted from HLM data; for HLM Predicted Systemic Clearance: scaled from HLM half-life (Obach method)
Procedure: A test compound (0.5 μM) was incubated with pooled mixed gender liver microsomes from humans (0.5 mg/mL total protein) at 37° C. in the presence of an NADPH-generating system containing 50 mM, pH 7.4 potassium phosphate buffer, 3 mM magnesium chloride, 1 mM EDTA, 1 mM NADP, 5 mM glusose-6-phosphate, and 1 Unit/mL glucose-6-phosphate dehydrogenase. All concentrations were relative to the final incubation volume of 125 μL. Incubations were conducted at 37° C. for 0, 5, 10, 20, 40, and 60 minutes in a water bath and terminated by rapid mixing with 150 μL of ice-cold acetonitrile containing internal standard. Precipitated proteins were removed by centrifugation prior to LC-MS/MS analysis. Aliquots of the resulting supernatant fractions were analyzed by LC-MS/MS monitoring for depletion of parent compound. The resultant peak area ratio versus time data was fitted to a non-linear regression using XLfit Scientific Curve Fitting Software (IDBS Ltd., Surrey, UK) and the elimination half-life (t1/2, min) was calculated from the slope. […] Additional values calculated included predicted extraction ratio and predicted maximum bioavailability.

Chain of human VMAT2 (Q05940 whole entry): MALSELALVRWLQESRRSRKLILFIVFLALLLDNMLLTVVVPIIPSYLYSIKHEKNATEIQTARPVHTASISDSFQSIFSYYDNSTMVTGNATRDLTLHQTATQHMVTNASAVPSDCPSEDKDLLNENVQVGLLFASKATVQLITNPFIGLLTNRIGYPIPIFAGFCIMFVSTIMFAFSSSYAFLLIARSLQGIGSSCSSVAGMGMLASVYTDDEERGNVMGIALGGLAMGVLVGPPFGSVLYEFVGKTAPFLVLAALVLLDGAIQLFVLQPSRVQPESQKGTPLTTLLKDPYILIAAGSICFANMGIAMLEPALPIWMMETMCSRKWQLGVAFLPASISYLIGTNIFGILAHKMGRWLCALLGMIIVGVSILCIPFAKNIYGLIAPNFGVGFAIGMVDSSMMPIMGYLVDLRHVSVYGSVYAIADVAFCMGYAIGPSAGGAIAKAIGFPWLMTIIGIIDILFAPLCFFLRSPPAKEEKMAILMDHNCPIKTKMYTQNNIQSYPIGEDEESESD

| SMILES | pKi [1] | CLint scaled at 0.5 μM [2] | half-life at 0.5 μM [2] | Predicted Max. Bioavailability (% F) [2] | HLM Predicted Systemic Clearance [2] |
| --- | --- | --- | --- | --- | --- |
| COc1cc2c(cc1OCCOC(C)(C)C#N)CCN1C[C@@H](CC(C)(C)C)[C@H](O)C[C@H]21 [Compound 4-44, 2-(2-{[(2R,3R,11bR)-3-(2,2-dimethylpropyl)-2-hydroxy-10-methoxy-1H,2H,3H,4H,6H,7H,11bH-pyrido[2,1-a]isoquinolin-9-yl]oxy}ethoxy)-2-methylpropanenitrile] | 8.62 | 26.9 mL/min/kg | 46 min | 43 % F | 11.47 mL/min/kg |
| COc1cc2c(cc1OCC1COC1)CCN1C[C@@H](CC(C)(C)C)[C@H](O)C[C@H]21 [Compound 4-22, (2R,3R,11bR)-3-(2,2-dimethylpropyl)-10-methoxy-9-(oxetan-3-ylmethoxy)-1H,2H,3H,4H,6H,7H,11bH-pyrido[2,1-a]isoquinolin-2-ol] | 7.85 | 9.6 mL/min/kg | 130 min | 68 % F | 6.49 mL/min/kg |
| COc1cc2c(cc1OCC1CCC1)CCN1C[C@@H](CC(C)(C)C)[C@H](O)C[C@H]21 [Compound 4-119, (2R,3R,11bR)-9-(cyclobutylmethoxy)-3-(2,2-dimethylpropyl)-10-methoxy-1H,2H,3H,4H,6H,7H,11bH-pyrido[2,1-a]isoquinolin-2-ol] | 9.54 | 134 mL/min/kg | 9 min | 13.00 % F | 17.4 mL/min/kg |
| COc1cc2c(cc1OCC1CC1)CCN1C[C@@H](CC(C)(C)C)[C@H](O)C[C@H]21 [Compound 4-88, (2R,3R,11bR)-9-(cyclopropylmethoxy)-3-(2,2-dimethylpropyl)-10-methoxy-1H,2H,3H,4H,6H,7H,11bH-pyrido[2,1-a]isoquinolin-2-ol] | 9.17 | 28.1 mL/min/kg | 44 min | 42 % F | 11.68 mL/min/kg |
| COc1cc2c(cc1OC)[C@H]1C[C@H](O)[C@H](CC(C)(C)C)CN1CC2 [Compound 5-2, (2S,3R,11bR)-3-(2,2-dimethylpropyl)-9,10-dimethoxy-1H,2H,3H,4H,6H,7H,11bH-pyrido[2,1-a]isoquinolin-2-ol] | 7.30 | 32.6 mL/min/kg | 38 min | 38 % F | 12.39 mL/min/kg |
| COc1cc2c(cc1OC(C)C)CCN1C[C@@H](CC(C)(C)C)[C@H](O)C[C@H]21 [Compound 4-38, (2R,3R,11bR)-3-(2,2-dimethylpropyl)-10-methoxy-9-(propan-2-yloxy)-1H,2H,3H,4H,6H,7H,11bH-pyrido[2,1-a]isoquinolin-2-ol] | 8.43 | 21.5 mL/min/kg | 58 min | 48 % F | 10.35 mL/min/kg |
| COc1cc2c(cc1OCC1(CC#N)CC1)CCN1C[C@@H](CC(C)(C)C)[C@H](O)C[C@H]21 [Compound 4-46, 2-[1-({[(2R,3R,11bR)-3-(2,2-dimethylpropyl)-2-hydroxy-10-methoxy-1H,2H,3H,4H,6H,7H,11bH-pyrido[2,1-a]isoquinolin-9-yl]oxy}methyl)cyclo-propyl]acetonitrile] | 7.60 | 45.1 mL/min/kg | 28 min | 31 % F | 13.86 mL/min/kg |
| COc1cc2c(cc1OCC(C)(F)F)CCN1C[C@@H](CC(C)(C)C)[C@H](O)C[C@H]21 [Compound 4-14, (2R,3R,11bR)-9-(2,2-difluoropropoxy)-3-(2,2-dimethylpropyl)-10-methoxy-1H,2H,3H,4H,6H,7H,11bH-pyrido[2,1-a]isoquinolin-2-ol] | 8.59 | ≤ 2.97 mL/min/kg | ≥ 420 min | ≥87 % F | ≤2.59 mL/min/kg |
| COc1cc2c(cc1OC1CCC1)CCN1C[C@@H](CC(C)(C)C)[C@H](O)C[C@H]21 [Compound 4-32, (2R,3R,11bR)-9-cyclobutoxy-3-(2,2-dimethylpropyl)-10-methoxy-1H,2H,3H,4H,6H,7H,11bH-pyrido[2,1-a]isoquinolin-2-ol] | 9.23 | 66.5 mL/min/kg | 19 min | 23 % F | 15.38 mL/min/kg |
| COc1cc2c(cc1OCCCCC(F)(F)F)CCN1C[C@@H](CC(C)(C)C)[C@H](O)C[C@H]21 [Compound 4-115, (2R,3R,11bR)-3-(2,2-dimethylpropyl)-10-methoxy-9-[(5,5,5-trifluoropentyl)oxy]-1H,2H,3H,4H,6H,7H,11bH-pyrido[2,1-a]isoquinolin-2-ol] | 8.21 | 9.38 mL/min/kg | 133 min | 68 % F | 6.39 mL/min/kg |
| COc1cc2c(cc1OCc1ccc(C#N)o1)CCN1C[C@@H](CC(C)(C)C)[C@H](O)C[C@H]21 [Compound 4-59, 5-({[(2R,3R,11bR)-3-(2,2-dimethylpropyl)-2-hydroxy-10-methoxy-1H,2H,3H,4H,6H,7H,11bH-pyrido[2,1-a]isoquinolin-9-yl]oxy}methyl)furan-2-carbonitrile] | 8.82 | 24.8 mL/min/kg | 50 min | 45 % F | 11.08 mL/min/kg |
| CC[C@@H]1C[C@H]1COc1cc2c(cc1OC)[C@H]1C[C@@H](O)[C@H](CC(C)(C)C)CN1CC2 [Compound 4-90, (2R,3R,11bR)-3-(2,2-dimethylpropyl)-9-{[(1R,2R)-2-ethylcyclopropyl]methoxy}-10-methoxy-1H,2H,3H,4H,6H,7H,11bH-pyrido[2,1-a]isoquinolin-2-ol] | 9.54 | 156 mL/min/kg | 8 min | 11 % F | 17.72 mL/min/kg |
| COc1cc2c(cc1OC[C@@H](C)OC)CCN1C[C@@H](CC(C)(C)C)[C@H](O)C[C@H]21 [Compound 4-91, (2R,3R,11bR)-3-(2,2-dimethylpropyl)-10-methoxy-9-[(2R)-2-methoxypropoxy]-1H,2H,3H,4H,6H,7H,11bH-pyrido[2,1-a]isoquinolin-2-ol] | 7.55 | 19.7 mL/min/kg | 63 min | 50 % F | 9.92 mL/min/kg |
| COc1cc2c(cc1OCC1(C#N)CC1)CCN1C[C@@H](CC(C)(C)C)[C@H](O)C[C@H]21 [Compound 4-29, 1-({[(2R,3R,11bR)-3-(2,2-dimethylpropyl)-2-hydroxy-10-methoxy-1H,2H,3H,4H,6H,7H,11bH-pyrido[2,1-a]isoquinolin-9-yl]oxy}methyl)cyclopropane-1-carbonitrile] | 7.08 | ≤ 2.97 mL/min/kg | ≥ 420 min | ≥87 % F | ≤2.59 mL/min/kg |
| COc1cc2c(cc1OCC13CC(C(F)(F)F)(C1)C3)CCN1C[C@@H](CC(C)(C)C)[C@H](O)C[C@H]21 [Compound 4-67, (2R,3R,11bR)-3-(2,2-dimethylpropyl)-10-methoxy-9-{[3-(trifluoromethyl)bi-cyclo[1.1.1]pentan-1-yl]methoxy}-1H,2H,3H,4H,6H,7H,11bH-pyrido[2,1-a]isoquinolin-2-ol] | 7.85 | ≤ 2.97 mL/min/kg | ≥ 420 min | ≥87 % F | ≤2.59 mL/min/kg |
| COc1cc2c(cc1OCC1CC1(F)F)CCN1C[C@@H](CC(C)(C)C)[C@H](O)C[C@H]21 (stereo partly drawn) [Compound 4-121, (2R,3R,11bR)-9-[(2,2-difluorocyclopropyl)methoxy]-3-(2,2-dimethylpropyl)-10-methoxy-1H,2H,3H,4H,6H,7H,11bH-pyrido[2,1-a]isoquinolin-2-ol] | 9.09 | 4.46 mL/min/kg | 280 min | 82 % F | 3.64 mL/min/kg |
